In patent US20240226026A1, “BRANCHED TAIL LIPID COMPOUNDS AND COMPOSITIONS FOR INTRACELLULAR DELIVERY OF THERAPEUTIC AGENTS” (ModernaTX, Inc., priority 2021, published 2024):

Experiments:
[1] = Particle size (diameter) and polydispersity index of lipid nanoparticles; assay type: physicochemical; settings: nanoparticles comprising the lipid
Method: A Zetasizer Nano ZS (Malvern Instruments Ltd, Malvern, Worcestershire, UK) can be used to determine the particle size, the polydispersity index (PDI) and the zeta potential of the nanoparticle compositions in 1×PBS in determining particle size and 15 mM PBS in determining zeta potential.
Lipid nanoparticles (e.g., empty LNPs or loaded LNPs) may be characterized by a variety of methods. For example, microscopy (e.g., transmission electron microscopy or scanning electron microscopy) may be used to examine the morphology and size distribution of a nanoparticle composition. Dynamic light scattering or potentiometry (e.g., potentiometric titrations) may be used to measure zeta potentials. Dynamic light scattering may also be utilized to determine particle sizes. Instruments such as the Zetasizer Nano ZS (Malvern Instruments Ltd, Malvern, Worcestershire, UK) may also be used to measure multiple characteristics of a nanoparticle composition, such as particle size, polydispersity index, and zeta potential.
(§1) Lipid nanoparticles (e.g., empty LNPs or loaded LNPs) including DSPC as a phospholipid, cholesterol as a structural lipid, PL-II (e.g., PEG-1) as a PEG lipid, and a lipid according to Formula (I-1), (I), (I-A), (I-A1), (I-A2), (I-A3), or (I-A4) were prepared. In some embodiments, the lipid nanoparticles further included rhodamine-DOPE as a fluorescent lipid. Tables 2a, 2b, and 3 summarize the characteristics of the formulations.

[2] = Encapsulation efficiency (% EE) of lipid nanoparticles; assay type: physicochemical; settings: nanoparticles comprising the lipid
Method: For nanoparticle compositions including an RNA, a QUANT-IT™ RIBOGREEN® RNA assay (Invitrogen Corporation Carlsbad, CA) can be used to evaluate the encapsulation of an RNA by the nanoparticle composition. The samples are diluted to a concentration of approximately 5 μg/mL in a TE buffer solution (10 mM Tris-HCl, 1 mM EDTA, pH 7.5). 50 μL of the diluted samples are transferred to a polystyrene 96 well plate and either 50 μL of TE buffer or 50 μL of a 2% Triton X-100 solution is added to the wells. The plate is incubated at a temperature of 37° C. for 15 minutes. The RIBOGREEN® reagent is diluted 1:100 in TE buffer, and 100 μL of this solution is added to each well. The fluorescence intensity can be measured using a fluorescence plate reader (Wallac Victor 1420 Multilablel Counter; Perkin Elmer, Waltham, MA) at an excitation wavelength of, for example, about 480 nm and an emission wavelength of, for example, about 520 nm. The fluorescence values of the reagent blank are subtracted from that of each of the samples and the percentage of free RNA is determined by dividing the fluorescence intensity of the intact sample (without addition of Triton X-100) by the fluorescence value of the disrupted sample (caused by the addition of Triton X-100).
The efficiency of encapsulation of a therapeutic and/or prophylactic describes the amount of therapeutic and/or prophylactic that is encapsulated or otherwise associated with a lipid nanoparticle (e.g., an empty LNP or a loaded LNP) after preparation, relative to the initial amount provided. The encapsulation efficiency is desired to be high (e.g., close to 100%). The encapsulation efficiency may be measured, for example, by comparing the amount of therapeutic and/or prophylactic in a solution containing a loaded LNP before and after breaking up the loaded LNP with one or more organic solvents or detergents. Fluorescence may be used to measure the amount of free therapeutic and/or prophylactic (e.g., RNA) in a solution. For the loaded LNPs formulated with lipids of the disclosure, the encapsulation efficiency of a therapeutic and/or prophylactic is at least 50%, for example 50%, 55%, 60%, 65%, 70%, 75%, 80%, 85%, 90%, 91%, 92%, 93%, 94%, 95%, 96%, 97%, 98%, 99%, or 100%. In some embodiments, the encapsulation efficiency is at least 80%. In some embodiments, the encapsulation efficiency is at least 90%. In some embodiments, the encapsulation efficiency of the therapeutic and/or prophylactic agent is between 80% and 100%.
as §1

[3] = Lipid nanoparticle surface hydrophobicity by Generalized Polarization by Laurdan (N-GP); assay type: physicochemical; settings: for LNP surface hydrophobicity (N-GP*): Table 2b, nanoparticles comprising the lipid; for Lipid nanoparticle surface hydrophobicity (N-GP*): Table 2a, Laurdan, higher N-GP indicates a less polar surface
Description: Surface hydrophobicity of nanoparticles of the disclosure can be measured by Generalized Polarization by Laurdan (GPL). In this method, Laurdan, a fluorescent aminonaphthalene ketone lipid, is post-inserted into the nanoparticle surface and the fluorescence spectrum of Laurdan is collected to determine the normalized Generalized Polarization (N-GP). In some embodiments, nanoparticles formulated with lipids of the disclosure have a surface hydrophobicity expressed as N-GP of between about 0.5 and about 1.5. For example, in some embodiments, nanoparticles formulated with lipids of the disclosure have a surface hydrophobicity expressed as N-GP of about 0.5, about 0.6, about 0.7, about 0.8, about 0.9, about 1.0, about 1.1, about 1.2, about 1.3, about 1.4, or about 1.5. In some embodiments, nanoparticles formulated with lipids of the disclosure have a surface hydrophobicity expressed as N-GP of about 1.0 or about 1.1.

[4] = Apparent pKa of lipid nanoparticles; assay type: physicochemical; settings: for Apparent pKa 95% CI: Table 2b, 95% confidence interval; for Apparent pKa: Table 2a, nanoparticles comprising the lipid
[5] = test system: CD-1 mice; test: Expression of hEPO induced by LNPs (mRNA encoding hEPO) administered to mice; assay type: in vivo; settings: Table 4a, serum, 6 h after intravenous injection; for Avg. hEPO Concentration (mIU/mL)* ± Avg. SD: ELLA Simple Plex Assay
Method: In some embodiments, hEPO concentrations were determined using an […] (ELLA) Simple Plex Assay (ProteinSimple) with a Human Erythroprotein cartridge. Standards for this assay are calibrated according to the 2. IRP WHO preparation. Nanoparticle compositions including mRNA are useful in the evaluation of the efficacy and usefulness of various formulations for the delivery of therapeutic and/or prophylactics. Higher levels of protein expression induced by administration of a composition including an mRNA will be indicative of higher mRNA translation and/or nanoparticle composition mRNA delivery efficiencies. As the non-RNA components are not thought to affect translational machineries themselves, a higher level of protein expression is likely indicative of a higher efficiency of delivery of the therapeutic and/or prophylactic by a given nanoparticle composition relative to other nanoparticle compositions or the absence thereof.
To assess potency of expression of lipids of the disclosure, the protein expression (hEPO) following administration of a nanoparticle comprising a lipid of the disclosure (e.g., a loaded LNP) to mice was measured.
Lipid nanoparticles (LNPs) including DSPC as a phospholipid, cholesterol as a structural lipid, PL-II (e.g., PEG-1) as a PEG lipid, a lipid according to Formula (I-1), (I), (I-A), (I-A1), (I-A2), (I-A3), or (I-A4), and an mRNA encoding hEPO were intravenously administered to CD-1 mice. The concentration of hEPO in serum was tested at 6 h after injection.

[6] = Table 2a, DSPC, cholesterol, PEG lipid

Row | Structure (SMILES) | Diameter (nm) ([1]; Table 2b) | PDI ([1]; Table 2b) | Diameter (nm) ([1]; Table 3) | PDI ([1]; Table 3) | % EE ([2]; Table 2b) | % EE ([2]; Table 3) | LNP surface hydrophobicity (N-GP*) [3] | Apparent pKa 95% CI [4] | Avg. hEPO Concentration (mIU/mL)* ± Avg. SD [5] | PDI ([1]; Table 2a) | Diameter (nm) [1, 6] | % EE ([2]; Table 2a) | Lipid nanoparticle surface hydrophobicity (N-GP*) [3] | Apparent pKa [4] | Avg. hEPO Concentration (mIU/mL) ± Avg. SD [5]
1 | CCCCCCCC(CCCCCCC)OC(=O)CCCCCCCN(CCCCCCCC(=O)OCCC(CCCC)CCCC)CCCNC(=O)C1(C)CC1 [Compound 18] | 144.2 nm | 0.207 | 95.9 nm | 0.174 | 18.6% | 23.9% | 1.05 | 6.744 to 6.808 | 5.45E+06 ± 1.26E+05 mIU/mL | – | – | – | – | – | –
2 | CCCCCCCCC(CCCCCCCC)OC(=O)CCCCCCCN(CCCCCCCC(=O)OCCC(CCCC)CCCC)CCCNc1n[s+]([O-])nc1NC (stereo not drawn) [Compound 1] | – | – | 63.3 nm | 0.083 | – | 97.9% | – | – | – | 0.342 | 69.7 nm | 98.1% | 1.07 | 7.187 | 7.26E+06 ± 1.51E+05 mIU/mL
3 | CCCCCC(CCCCC)CCOC(=O)CCCCCCCN(CCCCCCCC(=O)OCCC(CCCCC)CCCCC)CCCNS(=O)(=O)Cc1ccon1 [Compound 27] | 87.8 nm | 0.178 | 66.9 nm | 0.148 | 78.2% | 93.5% | 1.00 | 6.614 to 6.687 | 2.12E+06 ± 7.18E+04 mIU/mL | – | – | – | – | – | –
4 | CCCCCCCCC(CCCCCCCC)OC(=O)CCCCCCCN(CCCCCCCC(=O)OCCC(CCCC)CCCC)CCCNc1ncccc1N [Compound 7] | 76.9 nm | 0.129 | 72.6 nm | 0.133 | 98.0% | 99.0% | 1.17 | 6.654 to 6.751 | 1.04E+06 ± 2.04E+04 mIU/mL | – | – | – | – | – | –
5 | CCCCCCCCC(CCCCCCCC)OC(=O)CCCCCCCN(CCCCCCCC(=O)OCCC(CCCC)CCCC)CCCNS(=O)(=O)CC [Compound 5] | – | – | 83.1 nm | 0.166 | – | 96.0% | – | – | – | 0.073 | 67.2 nm | 93.4% | 1.02 | 6.536 | 1.04E+07 ± 2.49E+05 mIU/mL
6 | CCCCCC(CCCCC)CCOC(=O)CCCCCCCN(CCCCCCCC(=O)OCCC(CCCCC)CCCCC)CCCNS(=O)(=O)CCOC [Compound 24] | – | – | 93.8 nm | 0.17 | – | 95.4% | – | – | – | 0.112 | 87.9 nm | 82.9% | 1.05 | 6.725 | 8.30E+06 ± 1.36E+05 mIU/mL
7 | CCCCCCCC(CCCCCCC)OC(=O)CCCCCCCN(CCCCCCCC(=O)OCCC(CCCC)CCCC)CCCNS(=O)(=O)Cc1ccon1 [Compound 20] | 76.7 nm | 0.132 | 66 nm | 0.106 | 84.0% | 87.5% | 1.00 | 6.441 to 6.526 | 5.30E+06 ± 1.59E+05 mIU/mL | – | – | – | – | – | –
8 | CCCCCCCCC(CCCCCCCC)OC(=O)CCCCCCCN(CCCCCCCC(=O)OCCC(CCCC)CCCC)CCCNc1noc(N)n1 [Compound 2] | 68.6 nm | 0.214 | 52.6 nm | 0.163 | 99.2% | 97.6% | 1.21 | 6.437 to 6.559 | 3.38E+05 ± 9.49E+03 mIU/mL | – | – | – | – | – | –
9 | CCCCCC(CCCCC)CCOC(=O)CCCCCCCN(CCCCCCCC(=O)OCCC(CCCCC)CCCCC)CCCNc1n[s+]([O-])nc1NC (stereo not drawn) [Compound 22] | – | – | 83.4 nm | 0.195 | – | 97.2% | – | – | – | 0.104 | 78.3 nm | 95.6% | 1.03 | 6.895 | 7.14E+06 ± 1.53E+05 mIU/mL
